{"source": "patent US6872751B2", "about": "“Composition and method for augmenting or restoring the production of fetal protein in patient in need thereof” (Centre National de la Recherche Scientifique - CNRS, priority 1999, dated 2005)", "key": {"utrophin [1]": {"tested_on": "utrophin", "test": "Utrophin immunofluorescence in NXLT (normal) myotubes", "type": "cell-based, mouse", "settings": "48 hours", "description": "(§1) A, a-h: normal cell line (NXTL). B, a′-h′: mdx cell line (XLT). The cell cultures were treated by exposure of the differentiated myotubes to drugs for 48 hours. A, a′: control cultures. B, b′: L-arginine(2.10^−3M). c, c′: SIN-1 (10^−3 M). d, d′: SIN-I (10^−3 M) +L-arginine (10^−3 M). e, e′: D-arginine (10^−3 M). f, f′: L-arginine (10^−3 M)+OQD (10^−5 M). g, g′: L-NMMA (10^−3 M). h, h′: hydroxyurea (10^−4 M).\n(§2) Myotubes were obtained from normal cell line (NXLT) and mdx cell line as described by Liberona et al (1998, Muscle & Nerve, 21:902-909), and C2 myotubes as described by Inestrosa et al. (1983, Exp. Cell Res., 147:393-405).\n(§3) In vitro. The cultures were treated as described previously with the exception of the second antibody labelled with fluoroscein which was diluted to 1/100 vol/vol. The incubation time was 2 hours for the first and second antibody."}, "utrophin [2]": {"tested_on": "utrophin", "test": "Utrophin immunofluorescence in XLT (mdx) myotubes", "type": "cell-based, mouse", "settings": "48 hours", "description": "as §1, §2, §3"}, "utrophin [3]": {"tested_on": "utrophin", "test": "Utrophin immunolocalisation in muscle of normal adult mice treated chronically with L-arginine", "type": "in vivo, mouse", "settings": "normal adult C57 BL/6 mice, 200 mg/kg daily intra-peritoneal for three weeks, thigh muscles", "description": "(§4) Three normal, adult mice aged 18 months (C57 BL/6 line) and three mdx mice were given a daily intra-peritoneal injection of 200 mg/kg L-arginine for three weeks. Two other groups of three adult mice were used as controls and were given a daily injection of physiological serum.\n(§5) The mice were sacrificed by ether anaesthesia, the biceps femoris and the semi-tendinous muscles were quickly dissected from the hind limbs of each animal and frozen in liquid nitrogen.\n(§6) In vivo. After cold fixing in methanol (−20° C. for 10 minutes) sections of […] were incubated for two hours with utrophin specific monoclonal antibody (NCL-DRP 2, Novacastra) (1/10 vol/vol) in PBS containing 0.1% saponin and 0.2% bovine albumin. The second antibody labelled with fluoroscein (N 1031, Amersham) was diluted (1/4000 vol/vol) in PBS containing 0.1% saponin and incubated for one hour."}, "utrophin [4]": {"tested_on": "utrophin", "test": "Utrophin immunolocalisation in muscle of mdx mice treated chronically with L-arginine", "type": "in vivo, mouse", "settings": "200 mg/kg daily intra-peritoneal for three weeks, thigh muscles", "description": "as §4, §5, §6"}, "utrophin [5]": {"tested_on": "utrophin", "test": "Utrophin immunofluorescence in C2 myotubes", "type": "cell-based, mouse", "settings": "C2 mice myotubes", "description": "Myotubes were obtained from normal cell line (NXLT) and mdx cell line as described by Liberona et al (1998, Muscle & Nerve, 21:902-909), and C2 myotubes as described by Inestrosa et al. (1983, Exp. Cell Res., 147:393-405). In vitro. The cultures were treated as described previously with the exception of the second antibody labelled with fluoroscein which was diluted to 1/100 vol/vol. The incubation time was 2 hours for the first and second antibody."}, "utrophin [6]": {"tested_on": "utrophin", "test": "Utrophin immunofluorescence in primary rat myotubes", "type": "cell-based", "description": "as §3"}, "utrophin [7]": {"tested_on": "utrophin", "test": "Utrophin immunoblot of NXLT myotubes", "type": "cell-based, mouse", "settings": "48 hours, 2.10^-3 M", "description": "(§7) Imunoblot analysis of utrophin was conducted under control conditions (CTRL) and after 48 hours treatment with 2.10^−3 M L-arginine (L-arg).\nas §2\n(§8) The myotubes obtained from the NXLT, XLT and C2 lines were homogenized using a Polytron (Kinematica) in 10 mM Tris-HCl pH 6.8, 1% Triton X-100, 1% SOS, 0.5% sodium deoxycholate on ice. The quantity of total proteins was determined following the protocol for the bicinchoninic acid protein test (BCA, Pierce). Equivalent quantities of protein were separated by SOS-Page on 5% gel, then electrotransferred onto a nitrocellulose membrane (Schleicher & Schuell). The membranes were then incubated with the same monoclonal antibody directed against utrophin used for the immunofluorescence techniques (1/250 vol/vol). The fixed antibodies were detected with a Sanofi anti-mouse goat secondary antibody (1/5000 vol/vol) bound to horseradish peroxydase and developed by chemioluminescence reaction (ECL, Amersham Pharmacy Biotech)."}, "utrophin [8]": {"tested_on": "utrophin", "test": "Utrophin immunoblot of XLT (mdx) myotubes", "type": "cell-based, mouse", "settings": "48 hours, 2.10^-3 M", "description": "as §7, §2, §8"}, "utrophin [9]": {"tested_on": "utrophin", "test": "Utrophin immunoblot of C2 myotubes", "type": "cell-based, mouse", "settings": "48 hours, 2.10^-3 M", "description": "as §7, §2, §8"}, "[10]": {"settings": "ODQ 10^-5 M with L-arginine 10^-3 M"}}, "note": "“Also recorded” adds a separate entry of the source.", "data": [{"smiles": "N=C(N)NCCC[C@@H](N)C(=O)O", "note": "[D-arginine]", "values": [{"measurement": "utrophin labelling", "setting": "utrophin [1]; 10^-3 M", "value": "absence of any effect"}, {"measurement": "utrophin labelling", "setting": "utrophin [2]; 10^-3 M", "value": "absence of any effect"}]}, {"smiles": "CNC(=N)NCCC[C@H](N)C(=O)O", "note": "[L-NMMA, N^G-methyl-L-arginine]", "values": [{"measurement": "utrophin labelling", "setting": "utrophin [1]; 10^-3 M", "value": "basal level of utrophin"}, {"measurement": "utrophin labelling", "setting": "utrophin [2]; 10^-3 M", "value": "basal level of utrophin"}]}, {"smiles": "N=C(N)NCCCC(N)C(=O)O", "note": "[L-arginine, 2-amino-5-guanidinovaleric acid]", "values": [{"measurement": "utrophin at the sarcolemma (immunolocalisation)", "setting": "utrophin [3]", "value": "utrophin is seen under the sarcolemma; also recorded: utrophin was detected underneath the sarcolemma"}, {"measurement": "utrophin at the sarcolemma (immunolocalisation)", "setting": "utrophin [4]", "value": "increase in utrophin levels under the sarcolenima; also recorded: increased the utrophin level already present in the sarcolemma"}, {"measurement": "utrophin labelling", "setting": "utrophin [1]; 2.10^-3 M", "value": "utrophin labelling increased"}, {"measurement": "utrophin labelling", "setting": "utrophin [2]; 2.10^-3 M", "value": "utrophin labelling increased"}, {"measurement": "utrophin labelling", "setting": "utrophin [5]", "value": "increased labelling of utrophin was also observed to a lesser extent"}, {"measurement": "utrophin labelling", "setting": "utrophin [6]", "value": "increased labelling of utrophin was also observed to a lesser extent"}, {"measurement": "utrophin level (Western blot)", "setting": "utrophin [7]", "value": "evident increase of utrophin"}, {"measurement": "utrophin level (Western blot)", "setting": "utrophin [8]", "value": "evident increase of utrophin"}, {"measurement": "utrophin level (Western blot)", "setting": "utrophin [9]", "value": "increase in utrophin after treatment with L-arginine was confirmed"}]}, {"smiles": "O=c1onc2cnc3ccccc3n12", "note": "[ODQ]", "values": [{"measurement": "utrophin synthesis induced by NO (labelling)", "setting": "utrophin [1]; [10]", "value": "inhibited"}, {"measurement": "utrophin synthesis induced by NO (labelling)", "setting": "utrophin [2]; [10]", "value": "inhibited"}]}, {"smiles": "N=c1c[n+](N2CCOCC2)[n-]o1", "note": "[SIN-1, 3-morpholino-sydnonimine]", "values": [{"measurement": "utrophin labelling", "setting": "utrophin [1]; 10^-3 M", "value": "utrophin labelling increased"}, {"measurement": "utrophin labelling", "setting": "utrophin [2]; 10^-3 M", "value": "utrophin labelling increased"}, {"measurement": "utrophin labelling", "setting": "utrophin [5]", "value": "increased labelling of utrophin was also observed to a lesser extent"}, {"measurement": "utrophin labelling", "setting": "utrophin [6]", "value": "increased labelling of utrophin was also observed to a lesser extent"}]}, {"smiles": "NC(=O)NO", "note": "[hydroxyurea]", "values": [{"measurement": "utrophin labelling", "setting": "utrophin [1]; 10^-4 M", "value": "increases utrophin labelling in remarkable manner"}, {"measurement": "utrophin labelling", "setting": "utrophin [2]; 10^-4 M", "value": "increases utrophin labelling in remarkable manner"}]}]}
